The values that follow come from patent publication US7196110B2, “N-substituted tricyclic 3-aminopyrazoles as inhibitors for the treatment of cell proliferative disorders” (Janssen Phamaceutica N.V., priority 2002, dated 2007).

A word on the inhibition: it is the drop in the measured response relative to a control, in per cent. As usually defined, the IC50 is the concentration needed to halve the response being measured.

In this assay the target is T1, PDGF-receptor beta enzyme comprising the tyrosine kinase domain (Homo sapiens, UniProt P09619).
T1 construct: from amino acid 545 to 1106 of GenBank Access NO: AAA36427
The experiment in a line: Inhibition of PDGF-receptor kinase activity (cell-free, PLC1 peptide, 33P Flashplate). The class given is biochemical. The note with it: for inhibition at 10 µM: read-out: Percent Inhibition @ 10 uM. The gist of the method: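 The IC50 is the inhibitor level halving kinase activity relative to inhibitor-free wells, measured as 33P captured on a streptavidin-bound biotin-PLC1 peptide. The reaction ran 60 min at 30 °C in pH 8 Tris buffer with 1 mM DTT, 5 μM ATP and the 545–1106 kinase-domain enzyme.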

[1] abbreviates: PDGF-R kinase activity, compound at 10 uM.
The mark [2] stands for this setting: PDGF-R kinase activity, read-out: IC50.

The structures appear in SMILES notation. Read-outs that look alike come from different tables or passages of the source.

T1 sequence (P09619 545-1106): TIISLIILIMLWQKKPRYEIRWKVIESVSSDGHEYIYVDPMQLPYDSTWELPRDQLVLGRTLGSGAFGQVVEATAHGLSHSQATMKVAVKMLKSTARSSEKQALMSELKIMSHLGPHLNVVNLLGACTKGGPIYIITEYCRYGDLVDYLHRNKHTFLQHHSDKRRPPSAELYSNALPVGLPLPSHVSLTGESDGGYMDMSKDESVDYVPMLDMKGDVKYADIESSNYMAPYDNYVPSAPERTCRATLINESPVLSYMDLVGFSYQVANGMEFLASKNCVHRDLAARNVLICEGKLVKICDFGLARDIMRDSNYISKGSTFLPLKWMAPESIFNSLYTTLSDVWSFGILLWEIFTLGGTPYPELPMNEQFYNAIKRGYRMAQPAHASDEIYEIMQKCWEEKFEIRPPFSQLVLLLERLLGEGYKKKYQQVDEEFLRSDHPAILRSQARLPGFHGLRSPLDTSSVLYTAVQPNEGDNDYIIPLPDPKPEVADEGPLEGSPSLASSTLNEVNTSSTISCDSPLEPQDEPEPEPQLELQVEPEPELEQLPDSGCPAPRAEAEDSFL

For `COc1cc2c(cc1OC)-c1c(c(Nc3cccc(F)c3)nn1C(=O)NCCNC(=O)C(C)C)C2` [Compound 525, 3-(3-Fluoro-phenylamino)-6,7-dimethoxy-4H-indeno[1,2-c]pyrazole-1-carboxylic acid (2-isobutyrylamino-ethyl)-amide], the inhibition at 10 µM under setting [1] came out at 33%. Besides, under setting [2], the IC50 stood at 43.2 µM.

`COc1cc2c(cc1F)Cc1c-2n[nH]c1Nc1cccnc1` [Compound 364, (6-Fluoro-7-methoxy-2,4-dihydro-indeno[1,2-c]pyrazol-3-yl)-pyridin-3-yl-amine]: the inhibition at 10 µM under setting [1] came out at 100%. Also, the IC50 under setting [2] was 0.0151 µM. On to `COc1cc2c(cc1OC)-c1c(c(Nc3cccc(F)c3)nn1C(=O)NCCNC(=O)c1ccccc1O)C2` [Compound 542, 3-(3-Fluoro-phenylamino)-6,7-dimethoxy-4H-indeno[1,2-c]pyrazole-1-carboxylic acid [2-(2-hydroxy-benzoylamino)-ethyl]-amide], for which the inhibition at 10 µM under setting [1] is 21%.

Turning to `Fc1ccc2c(c1)Cc1c-2n[nH]c1Nc1ccc2[nH]ccc2c1` [Compound 290, (6-Fluoro-2,4-dihydro-indeno[1,2-c]pyrazol-3-yl)-(1H-indol-5-yl)-amine], the inhibition at 10 µM under setting [1] stood at 87.5%. Further, the IC50 under setting [2] was determined as 0.0614 µM. On to `COc1cc2c(cc1OC)-c1nn([C@@H]3O[C@H](C(=O)O)[C@@H](O)[C@H](O)[C@H]3O)c(Nc3cccc(F)c3)c1C2` [Compound 529, 6-[3-(3-Fluoro-phenylamino)-6,7-dimethoxy-4H-indeno[1,2-c]pyrazol-2-yl]-3,4,5-trihydroxy-tetrahydro-pyran-2-carboxylic acid], for which, under setting [1], the inhibition at 10 µM came out at 44%. The IC50 under setting [2] is 10.6 µM. For `Brc1cccc(Nc2[nH]nc3c2Cc2c(OCCN4CCCC4)cccc2-3)c1` [Compound 478, (3-Bromo-phenyl)-[5-(2-pyrrolidin-1-yl-ethoxy)-2,4-dihydro-indeno[1,2-c]pyrazol-3-yl]-amine], in that order: 93.5% and 0.162 µM.

For the compound `OCCCOc1cccc2c1Cc1c-2n[nH]c1NCc1c(F)cccc1F` [Compound 443, 3-[3-(2,6-Difluoro-benzylamino)-2,4-dihydro-indeno[1,2-c]pyrazol-5-yloxy]-propan-1-ol], the inhibition at 10 µM under setting [1] was 89.5%. In addition, the IC50 under setting [2] was found to be 0.098 µM. With `CCOc1cccc(Nc2[nH]nc3c2C(CC)c2cc(OC)c(OC)cc2-3)c1` (single isomer, unassigned) [Compound 556, (3-Ethoxy-phenyl)-(4-ethyl-6,7-dimethoxy-2,4-dihydro-indeno[1,2-c]pyrazol-3-yl)-amine], for the setting “PDGF-R kinase activity, compound at 10 uM, 10 µM”, the “Percent Inhibition @ 10 uM” value is on record as 98%. Besides, under setting [2], the IC50 was found to be 0.0104 µM. For `Cc1ccc2c(c1)-c1n[nH]c(NCc3ccc(C)c(Cl)c3)c1C2` [Compound 315, (3-Chloro-4-methyl-benzyl)-(7-methyl-2,4-dihydro-indeno[1,2-c]pyrazol-3-yl)-amine], the inhibition at 10 µM under setting [1] was determined as 17.5%. Under setting [2], the IC50 amounted to 1.92 µM. With `COc1cc2c(cc1OC)C(C)c1c-2n[nH]c1Nc1cc(F)ccc1F` (centres unmarked) [Compound 252, (2,5-Difluoro-phenyl)-(6,7-dimethoxy-4-methyl-2,4-dihydro-indeno[1,2-c]pyrazol-3-yl)-amine], the inhibition at 10 µM under setting [1] was 16%.

As for `COc1cc2c(cc1OC)-c1nn(Cc3ccc(OC(C)=O)cc3)c(Nc3cccc(F)c3)c1C2` [Compound 499, Acetic acid 4-[3-(3-fluoro-phenylamino)-6,7-dimethoxy-4H-indeno[1,2-c]pyrazol-2-ylmethyl]-phenyl ester], the inhibition at 10 µM under setting [1] worked out at 87%. The IC50 under setting [2] turned out to be 1.74 µM. As to `Cc1cccc(Nc2[nH]nc3c2Cc2cc(Cl)ccc2-3)c1` [Compound 197, (6-Chloro-2,4-dihydro-indeno[1,2-c]pyrazol-3-yl)-m-tolyl-amine], the inhibition at 10 µM under setting [1] was found to be 8%.

`COc1ccc(OC)c(Nc2[nH]nc3c2Cc2cc(OC)c(OC)cc2-3)c1` [Compound 48, (6,7-Dimethoxy-2,4-dihydro-indeno[1,2-c]pyrazol-3-yl)-(2,5-dimethoxy-phenyl)-amine]: the inhibition at 10 µM under setting [1] is 39%. In the case of `CC1c2ccccc2-c2n[nH]c(Nc3ccc(F)cc3)c21` (centres unmarked) [Compound 106, (4-Fluoro-phenyl)-(4-methyl-2,4-dihydro-indeno[1,2-c]pyrazol-3-yl)-amine], the inhibition at 10 µM under setting [1] was determined as 38%. Further, the IC50 under setting [2] was determined as 1.05 µM. For the compound `Cc1cccc2c1Cc1c-2n[nH]c1Nc1cccnc1` [Compound 100, (5-Methyl-2,4-dihydro-indeno[1,2-c]pyrazol-3-yl)-pyridin-3-yl-amine], the inhibition at 10 µM under setting [1] was determined as 81%. Moreover, the IC50 under setting [2] came out at 1.72 µM. Turning to `Fc1ccc2c(c1)Cc1c-2n[nH]c1Nc1ccc(C(F)(F)F)cc1` [Compound 237, (6-Fluoro-2,4-dihydro-indeno[1,2-c]pyrazol-3-yl)-(4-trifluoromethyl-phenyl)-amine], the inhibition at 10 µM under setting [1] is 88%. Further, the IC50 under setting [2] turned out to be 0.05 µM. As for `CCOc1cc2c(cc1OCCCO)-c1n[nH]c(Nc3cccc(OC)c3)c1C2` [Compound 366, 3-[6-Ethoxy-3-(3-methoxy-phenylamino)-2,4-dihydro-indeno[1,2-c]pyrazol-7-yloxy]-propan-1-ol], the inhibition at 10 µM under setting [1] is 100%. Further, the IC50 under setting [2] amounted to 0.0121 µM. For `COc1cc2c(cc1OC)-c1nn(C(=O)Oc3ccc(F)cc3)c(Nc3cccc(F)c3)c1C2` [Compound 503, 3-(3-Fluoro-phenylamino)-6,7-dimethoxy-4H-indeno[1,2-c]pyrazole-2-carboxylic acid 4-fluoro-phenyl ester], in that order: 103% and 0.0451 µM. For the compound `CCOc1cc2c(cc1OCC)C(C)c1c-2n[nH]c1Nc1ccc(F)cc1` (centres unmarked) [Compound 349, (6,7-Diethoxy-4-methyl-2,4-dihydro-indeno[1,2-c]pyrazol-3-yl)-(4-fluoro-phenyl)-amine], the inhibition at 10 µM under setting [1] is 78%. Besides, the IC50 under setting [2] was determined as 0.0809 µM. For the compound `COc1cc2c(cc1OC)-c1n[nH]c(NCc3cccnc3)c1C2` [Compound 564, (6,7-Dimethoxy-2,4-dihydro-indeno[1,2-c]pyrazol-3-yl)-pyridin-3-ylmethyl-amine], under setting [1], the inhibition at 10 µM turned out to be 99.5%. Besides, the IC50 under setting [2] is 0.886 µM. Consider `COc1cc2c(cc1OC)-c1nn(C(C)=O)c(Nc3cccc(F)c3)c1C2` [Compound 406, 1-[3-(3-Fluoro-phenylamino)-6,7-dimethoxy-4H-indeno[1,2-c]pyrazol-2-yl]-ethanone], for which, under setting [1], the inhibition at 10 µM stood at 96%. For the same compound, the IC50 under setting [2] came out at 0.075 µM.

With `COc1cc2c(cc1OC)-c1n[nH]c(Nc3cccc(OC(C)C)c3)c1C2` [Compound 584, (6,7-Dimethoxy-2,4-dihydro-indeno[1,2-c]pyrazol-3-yl)-(3-isopropoxy-phenyl)-amine], the inhibition at 10 µM under setting [1] came out at 109%. In addition, the IC50 (read-out: IC50 (μM) on PDGF-R kinase activity) is 0.0111 µM. With `COC(=O)CCCC(=O)n1nc(Nc2cccc(F)c2)c2c1-c1cc(OC)c(OC)cc1C2` [Compound 464, 5-[3-(3-Fluoro-phenylamino)-6,7-dimethoxy-4H-indeno[1,2-c]pyrazol-1-yl]-5-oxo-pentanoic acid methyl ester], the inhibition at 10 µM under setting [1] amounted to 92%. Under setting [2], the IC50 turned out to be 0.245 µM.

As for `COc1cc2c(cc1OC)-c1n[nH]c(Nc3cccc(Cl)c3Cl)c1C2` [Compound 20, (2,3-Dichloro-phenyl)-(6,7-dimethoxy-2,4-dihydro-indeno[1,2-c]pyrazol-3-yl)-amine], the inhibition at 10 µM under setting [1] was determined as 77%. The IC50 under setting [2] is 1.1 µM. Turning to `COCCCOc1ccc2c(c1)Cc1c-2n[nH]c1Nc1ccc(F)cc1` [Compound 136, (4-Fluoro-phenyl)-[6-(3-methoxy-propoxy)-2,4-dihydro-indeno[1,2-c]pyrazol-3-yl]-amine], under setting [1], the inhibition at 10 µM was 64.5%. For the same compound, the IC50 under setting [2] worked out at 1.33 µM.

As to `CCN(CC)C(=O)CC(=O)n1nc(Nc2cccc(F)c2)c2c1-c1cc(OC)c(OC)cc1C2` [Compound 537, N,N-Diethyl-3-[3-(3-fluoro-phenylamino)-6,7-dimethoxy-4H-indeno[1,2-c]pyrazol-1-yl]-3-oxo-propionamide], the inhibition at 10 µM under setting [1] was determined as 104%. Further, under setting [2], the IC50 came to 0.33 µM. For `Fc1cccc(Nc2[nH]nc3c2Cc2c(OCCCN4CCOCC4)cccc2-3)c1` [Compound 393, (3-Fluoro-phenyl)-[5-(3-morpholin-4-yl-propoxy)-2,4-dihydro-indeno[1,2-c]pyrazol-3-yl]-amine], the inhibition at 10 µM under setting [1] was 94.5%. Moreover, the concentration for half-maximal inhibition (IC50) under setting [2] turned out to be 0.174 µM. In the case of `CCOc1cc2c(cc1OCC)-c1n[nH]c(NCc3ccccc3F)c1C2` [Compound 293, (6,7-Diethoxy-2,4-dihydro-indeno[1,2-c]pyrazol-3-yl)-(2-fluoro-benzyl)-amine], the inhibition at 10 µM under setting [1] was 96.5%. For the same compound, under setting [2], the IC50 came out at 0.0692 µM. As to `COc1ccc(Nc2[nH]nc3c2Cc2cc(F)ccc2-3)cc1Cl` [Compound 288, (3-Chloro-4-methoxy-phenyl)-(6-fluoro-2,4-dihydro-indeno[1,2-c]pyrazol-3-yl)-amine], the inhibition at 10 µM under setting [1] came out at 88.5%. For the same compound, the half-maximal inhibitory concentration (IC50) under setting [2] worked out at 0.219 µM. Take `CCC1c2cc(OC)c(OC)cc2-c2c1c(Nc1cccc(Br)c1)nn2C(=O)c1ccccc1` (centres unmarked) [Compound 546, [3-(3-Bromo-phenylamino)-4-ethyl-6,7-dimethoxy-4H-indeno[1,2-c]pyrazol-1-yl]-phenyl-methanone]: the inhibition at 10 µM under setting [1] was 72.5%. `CCC1c2cc(OC)c(OC)cc2-c2c1c(Nc1cccc(Br)c1)nn2C(=O)OCCOCCOCCO` (centres unmarked) [Compound 547, 3-(3-Bromo-phenylamino)-4-ethyl-6,7-dimethoxy-4H-indeno[1,2-c]pyrazole-1-carboxylic acid 2-[2-(2-hydroxy-ethoxy)-ethoxy]-ethyl ester]: the inhibition at 10 µM under setting [1] worked out at 68.5%.
